Laboratory results as given in patent publication US5075296A, “Azacyclooctadiene compound and pharmaceutical use” (Eisai Co., Ltd., priority 1989, dated 1991).
≈ marks a conversion by molar mass, not a printed value.

Assays:
KB cells = experiment: antitumor activity in vitro with cultured KB cells (growth inhibition, Coulter counter); format: cell-based, human; conditions: four days, 37° C., MEM - 10% calf serum; for IC50: Homo sapiens, KB, 96 h, read-out: ED50 (concentration at which the growth inhibition was substantially 50% based on the control); for ED50 (concentration at which the growth inhibition was substantially 50% based on the control): 5760 min
Procedure: The antitumor activity of the compounds of the present invention was determined in vitro with cultured KB cells.
The experiment was conducted by using KB derived from a human epidermoid carcinoma of the mouth and Eagle's minimal essential medium (MEM) - 10% calf serum at 37° C. in a carbon dioxide incubator (5% CO2).
KB cells were diluted at a dilution rate of 1×10^4 /ml medium. 2 ml of the sample thus formed was placed in a 30-mm plastic dish so that the final concentration of the compounds of the present invention would be 100, 30, 10, 3 or 1 μg/ml. After four days, the cells were peeled from the dish surface with trypsin and the number of the cells was counted with a Coulter counter.
The criterion according to NCI (U.S.A.) was employed to determine the concentration (ED50) at which the growth inhibition was substantially 50% based on the control.

S-180 salcoma cells = experiment: antitumor activity in ICR mice inoculated with S-180 salcoma cells (increase in life-span); format: in vivo, mouse (female ICR mice); conditions: intra-peritoneal, once a day Day 1 to 5; for Number of surviving mice: observation period 52 days, saline control 0/12, DMSO 0/7; for Prolongation extent of life: saline control 0, DMSO -11; for Average days of the prolongation of life: saline control 13.3 ± 3.7, DMSO 12.0 ± 3.0
Procedure: Female ICR mice being 6 weeks old were inoculated abdominally with 0.2 ml of a sample of cell suspension in PBS containing 5×10^5 S-180 salcoma cells, on Day 0. Once a day for 5 days (Day 1 to 5) from the next day, they were inoculated abdominally with the above shown compounds of A-IV-b, B-VI-6 and D-I-a, respectively, dispersed in 6 wt. % dimethylsulfoxide solution, with intra-peritoneal injection of 25 or 50 mg/kg. A saline and a solvent were used for reference control. 12 to 7 mice were used in the saline control and the drug test, respectively. Antitumor activity was determined by the mean survival time (prolongation of life) of the test group (T) with that of the control group (C) and is shown in terms of an increase in life-span (prolongation extent of life), that is, ((T/C)×100%). The observation period was 52 days and survivors were excluded from calculation.

COc1cc2c(c(OC)c1OC)-c1cc3c(cc1CC(CO)N(C)C2)OCO3 (stereo not shown) [A-V-a]
IC50 (KB cells): 1.5 µg/mL (≈ 3.87 µM)

COc1cc(CN2C(=O)NCC2Cc2ccc3c(c2)OCO3)cc(OC)c1OC (stereo not shown) [B-V]
IC50 (KB cells): 47 µg/mL (≈ 117 µM)

COc1cc(C2c3cc4c(cc3C(N=[N+]=[N-])C3COC(=O)N23)OCO4)cc(OC)c1OC [D-X-a]
ED50 (concentration at which the growth inhibition was substantially 50% based on the control) (KB cells): 0.68 µg/mL (≈ 1.54 µM)

COc1cc2c(c(OC)c1O)-c1cc3c(cc1CC1COC(=O)N1C2)OCO3 (stereo not shown) [A-IX-a]
IC50 (KB cells): 50 µg/mL (≈ 130 µM)

COc1cc2c(c(OC)c1OC)-c1cc3c(cc1CC1CN(CC(=O)O)C(=O)N1C2)OCO3 (stereo not shown) [B-VIII-b]
IC50 (KB cells): 5.4 µg/mL (≈ 11.8 µM)

COc1cc2c(c(OC)c1OC)-c1cc3c(cc1CC(CO)N(C)C2)OCO3 (stereo not shown) [A-V-b]
ED50 (concentration at which the growth inhibition was substantially 50% based on the control) (KB cells): 1.1 µg/mL (≈ 2.84 µM)

COc1cc2c(c(OC)c1OC)-c1cc3c(cc1CC(CO)N(C=O)C2)OCO3 (stereo not shown) [A-VII-a]
IC50 (KB cells): < 0.3 µg/mL

COc1cc(C2c3cc4c(cc3C(N)C3COC(=O)N23)OCO4)cc(OC)c1OC [D-XI-b]
IC50 (KB cells): < 0.3 µg/mL

COc1cc(C2c3cc4c(cc3CC3COC(=O)N32)OCO4)cc(OC)c1OC [D-I-a]
Number of surviving mice (S-180 salcoma cells; 25 mg/kg): 0/7 | Prolongation extent of life (S-180 salcoma cells; 25 mg/kg): 62% | Average days of the prolongation of life (S-180 salcoma cells; 25 mg/kg): 21.9 ± 4.0 days | Number of surviving mice (S-180 salcoma cells; 50 mg/kg): 0/7 | Prolongation extent of life (S-180 salcoma cells; 50 mg/kg): 48% | Average days of the prolongation of life (S-180 salcoma cells; 50 mg/kg): 20.0 ± 5.6 days

COc1cc2c(c(OC)c1OC)-c1cc3c(cc1CC(COC(C)=O)N(C)C2)OCO3 (stereo not shown) [A-VI-a]
IC50 (KB cells): 1.65 µg/mL (≈ 3.84 µM)

COc1cc2c(c(OC)c1OC)-c1cc3c(cc1CC1CN(CC(=O)OC(C)(C)C)C(=O)N1C2)OCO3 (stereo not shown) [B-VII-b]
IC50 (KB cells): 1.7 µg/mL (≈ 3.32 µM)

COc1cc(CN2C(=O)OCC2Cc2ccc3c(c2)OCO3)cc(OC)c1OC (stereo not shown) [A-III]
IC50 (KB cells): 35 µg/mL (≈ 87.2 µM)

COc1cc(C2c3cc4c(cc3C(N=[N+]=[N-])C3COC(=O)N23)OCO4)cc(OC)c1OC [D-X-b]
ED50 (concentration at which the growth inhibition was substantially 50% based on the control) (KB cells): < 0.3 µg/mL

COc1c(O)cc2c(c1OC)-c1cc3c(cc1CC1COC(=O)N1C2)OCO3 (stereo not shown) [A-VIII-a]
IC50 (KB cells): 17 µg/mL (≈ 44.1 µM)

COc1cc2c(c(OC)c1OC)-c1cc3c(cc1CC1COC(=O)N1C2)OCO3 (stereo not shown) [A-IV-a]
ED50 (concentration at which the growth inhibition was substantially 50% based on the control) (KB cells): 47.0 µg/mL (≈ 118 µM)

COc1cc2c(c(OC)c1OC)-c1cc3c(cc1CC1CNC(=O)N1C2)OCO3 (stereo not shown) [B-VI-b]
IC50 (KB cells): < 0.3 µg/mL | Number of surviving mice (S-180 salcoma cells; 25 mg/kg): 2/7 | Prolongation extent of life (S-180 salcoma cells; 25 mg/kg): 50% | Average days of the prolongation of life (S-180 salcoma cells; 25 mg/kg): 20.2 ± 4.2 days | Number of surviving mice (S-180 salcoma cells; 50 mg/kg): 0/7 | Prolongation extent of life (S-180 salcoma cells; 50 mg/kg): 120% | Average days of the prolongation of life (S-180 salcoma cells; 50 mg/kg): 29.7 ± 3.9 days

COc1cc2c(c(OC)c1OC)-c1cc3c(cc1CC1COC(=O)N1C2)OCO3 (stereo not shown) [A-IV-b]
ED50 (concentration at which the growth inhibition was substantially 50% based on the control) (KB cells): < 0.3 µg/mL | Number of surviving mice (S-180 salcoma cells; 25 mg/kg): 0/7 | Prolongation extent of life (S-180 salcoma cells; 25 mg/kg): -4% | Average days of the prolongation of life (S-180 salcoma cells; 25 mg/kg): 12.9 ± 2.3 days | Number of surviving mice (S-180 salcoma cells; 50 mg/kg): 0/7 | Prolongation extent of life (S-180 salcoma cells; 50 mg/kg): 40% | Average days of the prolongation of life (S-180 salcoma cells; 50 mg/kg): 19.0 ± 5.5 days
